Measurements reported in US20020137929A1, “1 - (3-heterocyclylphenyl) isothiourea, -isourea, -guanidine and -amidine herbicidal agents” (Intellectual Property Department, BASF Aktiengesellschaft, priority 1998, published 2002).

Assays:
ORYSAT (Rice, Tebonnet) = test: Postemergence herbicidal evaluation; format: in vivo, Oryza sativa, (L.) Tebonnet; conditions: for ORYSAT herbicidal rating: postemergence
Outline: (§1)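 Each compound, dispersed in an acetone/water mix (50/50) carrying 0.5% TWEEN 20, is nozzle-sprayed at 40 psi on approximately two-week-old seedlings at about 0.0156–0.500 kg/ha. Plants are assessed 4–5 weeks afterward on a 0–9 scale relative to control; duplicate tests are averaged.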

GALAP (Galium) = test: Preemergence herbicidal evaluation; format: in vivo, Galium aparine; conditions: rated 4-5 weeks after treatment
Outline: (§2)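 Greenhouse preemergence test: seed-soil mix sown on ~1 inch soil; aqueous acetone spray at equivalent of ~0.0156–0.500 kg/ha; greenhouse-held and watered; scored 0–9 visually at 4–5 weeks.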

CYPSE (Flatsedge) [1] = test: Preemergence weed control under flooded paddy conditions; format: in vivo, Cyperus serotinus; conditions: rated 3-4 weeks after treatment
Outline: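 Flooded-pot preemergence screen with silt loam and seeds in the upper 0.5 cm. Dose about 0.0313 to 0.500 kg/ha, delivered into flood water; visual 0-9 score after 3 to 4 weeks.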

CASOB (Sicklepod) = test: Preemergence herbicidal evaluation; format: in vivo, Cassia obtusifolia; conditions: rated 4-5 weeks after treatment
Outline: as §2

AMBEL (Ragweed, Common) [2] = test: Postemergence herbicidal evaluation; format: in vivo, Ambrosia artemisifolia; conditions: for AMBEL herbicidal rating: postemergence
Outline: as §1

ZEAMX (Corn, Field) = test: Postemergence herbicidal evaluation; format: in vivo, Zea mays; conditions: for ZEAMX herbicidal rating: postemergence
Outline: as §1

[3] = tested on: CHEAL (Lambsquarters, Common); test: Postemergence herbicidal evaluation; format: in vivo, Chenopodium album; conditions: for CHEAL herbicidal rating: postemergence
Outline: as §1

AMBEL (Ragweed, Common) [4] = test: Preemergence herbicidal evaluation; format: in vivo, Ambrosia artemisifolia; conditions: rated 4-5 weeks after treatment
Outline: as §2

ABUTH (Velvetleaf) = test: Postemergence herbicidal evaluation; format: in vivo, Abutilon theophrasti; conditions: for ABUTH herbicidal rating: postemergence
Outline: as §1

[5] = tested on: CHEAL (Lambsquarters, Common); test: Preemergence herbicidal evaluation; format: in vivo, Chenopodium album; conditions: rated 4-5 weeks after treatment
Outline: as §2

ECHCG (Barnyardgrass) = test: Postemergence herbicidal evaluation; format: in vivo, Echinochloa crus-galli; conditions: for ECHCG herbicidal rating: postemergence
Outline: as §1

CYPIR (Rice Flatsedge) = test: Postemergence weed control under flooded paddy conditions; format: in vivo, Cyperus iria; conditions: postemergence weeds, 3-4 weeks after treatment
Outline: (§3)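 Weeds 3 to 5 cm tall and rice seedlings at the 1.5 to 2.5 leaf stage were flooded, with water held 1.5 to 3 cm above the soil. Compounds in 50/50 v/v aqueous/acetone went into the flood water at about 0.0313 to 0.500 kg/ha. Visual 0-9 ratings versus control were made 3 to 4 weeks later.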

[6] = tested on: GLXMAW (Soybean, Williams); test: Postemergence herbicidal evaluation; format: in vivo, Glycine max, (L.) Merr. cv Williams; conditions: for GLXMAW herbicidal rating: postemergence
Outline: as §1

CYPSE (Flatsedge) [7] = test: Postemergence weed control under flooded paddy conditions; format: in vivo, Cyperus serotinus; conditions: postemergence weeds, 3-4 weeks after treatment
Outline: as §3

Structure (SMILES): CCOC(=O)CN1C(=O)C(CC(=O)O)SC1=Nc1cc(-n2c(=O)cc(C(F)(F)F)n(C)c2=O)c(Cl)cc1Cl (stereo not shown) [Compound 33, 2-{{2,4-Dichloro-5-[3,6-dihydro-3-methyl-2,6-dioxo-4-(trifluoromethyl)-1(2H)-pyrimidinyl]phenyl}-imino}-4-oxo-3,5-thiazolidinediacetic acid, 3-ethyl ester]
- Postemergence herbicidal rating ORYSAT (ORYSAT (Rice, Tebonnet); Rate 0.0158 kg/ha): 0.5
- Postemergence herbicidal rating ORYSAT (ORYSAT (Rice, Tebonnet); Rate 0.0315 kg/ha): 2.0
- Postemergence herbicidal rating ORYSAT (ORYSAT (Rice, Tebonnet); Rate 0.0630 kg/ha): 2.0
- Preemergence herbicidal rating GALAP (GALAP (Galium); rate 0.0156 kg/ha): 0.0
- Preemergence herbicidal rating GALAP (GALAP (Galium); rate 0.0313 kg/ha): 0.0
- Preemergence herbicidal rating GALAP (GALAP (Galium); rate 0.0625 kg/ha): 0.0
- Herbicidal rating CYPSE (CYPSE (Flatsedge) [1]; 0.2500 kg/ha): 0.0
- Preemergence herbicidal rating CASOB (CASOB (Sicklepod); rate 0.0156 kg/ha): 0.0
- Preemergence herbicidal rating CASOB (CASOB (Sicklepod); rate 0.0313 kg/ha): 0.0
- Preemergence herbicidal rating CASOB (CASOB (Sicklepod); rate 0.0625 kg/ha): 0.0
- Preemergence herbicidal rating CASOB (CASOB (Sicklepod); rate 0.1250 kg/ha): 4.0
- Preemergence herbicidal rating CASOB (CASOB (Sicklepod); rate 0.2500 kg/ha): 9.0
- Postemergence herbicidal rating AMBEL (AMBEL (Ragweed, Common) [2]; Rate 0.0158 kg/ha): 9.0
- Postemergence herbicidal rating AMBEL (AMBEL (Ragweed, Common) [2]; Rate 0.0315 kg/ha): 9.0
- Postemergence herbicidal rating AMBEL (AMBEL (Ragweed, Common) [2]; Rate 0.0630 kg/ha): 9.0
- Postemergence herbicidal rating ZEAMX (ZEAMX (Corn, Field); Rate 0.0158 kg/ha): 7.5
- Postemergence herbicidal rating ZEAMX (ZEAMX (Corn, Field); Rate 0.0315 kg/ha): 8.0
- Postemergence herbicidal rating ZEAMX (ZEAMX (Corn, Field); Rate 0.0630 kg/ha): 8.5
- Postemergence herbicidal rating CHEAL ([3]; Rate 0.0158 kg/ha): 9.0
- Postemergence herbicidal rating CHEAL ([3]; Rate 0.0315 kg/ha): 9.0
- Postemergence herbicidal rating CHEAL ([3]; Rate 0.0630 kg/ha): 9.0
- Preemergence herbicidal rating AMBEL (AMBEL (Ragweed, Common) [4]; rate 0.0156 kg/ha): 0.0
- Preemergence herbicidal rating AMBEL (AMBEL (Ragweed, Common) [4]; rate 0.0313 kg/ha): 0.0
- Preemergence herbicidal rating AMBEL (AMBEL (Ragweed, Common) [4]; rate 0.0625 kg/ha): 9.0
- Preemergence herbicidal rating AMBEL (AMBEL (Ragweed, Common) [4]; rate 0.1250 kg/ha): 9.0
- Preemergence herbicidal rating AMBEL (AMBEL (Ragweed, Common) [4]; rate 0.2500 kg/ha): 9.0
- Postemergence herbicidal rating ABUTH (ABUTH (Velvetleaf); Rate 0.0158 kg/ha): 9.0
- Postemergence herbicidal rating ABUTH (ABUTH (Velvetleaf); Rate 0.0315 kg/ha): 9.0
- Postemergence herbicidal rating ABUTH (ABUTH (Velvetleaf); Rate 0.0630 kg/ha): 9.0
- Preemergence herbicidal rating CHEAL ([5]; rate 0.0156 kg/ha): 4.0
- Preemergence herbicidal rating CHEAL ([5]; rate 0.0625 kg/ha): 7.0
- Preemergence herbicidal rating CHEAL ([5]; rate 0.1250 kg/ha): 9.0
- Preemergence herbicidal rating CHEAL ([5]; rate 0.2500 kg/ha): 9.0
- Postemergence herbicidal rating ECHCG (ECHCG (Barnyardgrass); Rate 0.0158 kg/ha): 2.0
- Postemergence herbicidal rating ECHCG (ECHCG (Barnyardgrass); Rate 0.0315 kg/ha): 9.0
- Postemergence herbicidal rating ECHCG (ECHCG (Barnyardgrass); Rate 0.0630 kg/ha): 9.0
- Herbicidal rating CYPIR (CYPIR (Rice Flatsedge); rate 0.2500 kg/ha): 0.0
- Postemergence herbicidal rating GLXMAW ([6]; Rate 0.0158 kg/ha): 7.0
- Postemergence herbicidal rating GLXMAW ([6]; Rate 0.0315 kg/ha): 8.5
- Postemergence herbicidal rating GLXMAW ([6]; Rate 0.0630 kg/ha): 8.5
- Herbicidal rating CYPSE (CYPSE (Flatsedge) [7]; rate 0.2500 kg/ha): 0.0

Structure (SMILES): CCOC(=O)CN1C(=O)CO/C1=N/c1cc(-n2c(=O)cc(C(F)(F)F)n(C)c2=O)c(F)cc1Cl [Compound 22, Ethyl 2-{{2-chloro-5-[3,6-dihydro-3-methyl-2,6-dioxo-4-(trifluoromethyl)-1(2H)-pyrimidinyl]-4-fluorophenyl}imino}-4-oxo-3-oxazolidineacetate]
- ORYSAT herbicidal rating (ORYSAT (Rice, Tebonnet); rate 0.0158 kg/ha): 2.5
- ORYSAT herbicidal rating (ORYSAT (Rice, Tebonnet); rate 0.0315 kg/ha): 3.0
- ORYSAT herbicidal rating (ORYSAT (Rice, Tebonnet); rate 0.0630 kg/ha): 4.5
- GALAP preemergence herbicidal rating (GALAP (Galium); rate 0.0156 kg/ha): 0.0
- GALAP preemergence herbicidal rating (GALAP (Galium); rate 0.0313 kg/ha): 0.0
- GALAP preemergence herbicidal rating (GALAP (Galium); rate 0.0625 kg/ha): 0.0
- GALAP preemergence herbicidal rating (GALAP (Galium); rate 0.1250 kg/ha): 0.0
- GALAP preemergence herbicidal rating (GALAP (Galium); rate 0.2500 kg/ha): 9.0
- Herbicidal rating CYPSE (CYPSE (Flatsedge) [1]; 0.1160 kg/ha): 4.0
- Herbicidal rating CYPSE (CYPSE (Flatsedge) [1]; 0.2310 kg/ha): 4.0
- Herbicidal rating CYPSE (CYPSE (Flatsedge) [1]; 0.4630 kg/ha): 4.0
- CASOB preemergence herbicidal rating (CASOB (Sicklepod); rate 0.0156 kg/ha): 0.0
- CASOB preemergence herbicidal rating (CASOB (Sicklepod); rate 0.0313 kg/ha): 0.0
- CASOB preemergence herbicidal rating (CASOB (Sicklepod); rate 0.0625 kg/ha): 0.0
- CASOB preemergence herbicidal rating (CASOB (Sicklepod); rate 0.1250 kg/ha): 3.0
- CASOB preemergence herbicidal rating (CASOB (Sicklepod); rate 0.2500 kg/ha): 9.0
- AMBEL herbicidal rating (AMBEL (Ragweed, Common) [2]; rate 0.0158 kg/ha): 6.0
- AMBEL herbicidal rating (AMBEL (Ragweed, Common) [2]; rate 0.0315 kg/ha): 6.0
- AMBEL herbicidal rating (AMBEL (Ragweed, Common) [2]; rate 0.0630 kg/ha): 7.0
- ZEAMX herbicidal rating (ZEAMX (Corn, Field); rate 0.0158 kg/ha): 7.0
- ZEAMX herbicidal rating (ZEAMX (Corn, Field); rate 0.0315 kg/ha): 7.5
- ZEAMX herbicidal rating (ZEAMX (Corn, Field); rate 0.0630 kg/ha): 7.5
- CHEAL herbicidal rating ([3]; rate 0.0158 kg/ha): 4.0
- CHEAL herbicidal rating ([3]; rate 0.0315 kg/ha): 6.0
- CHEAL herbicidal rating ([3]; rate 0.0630 kg/ha): 3.0
- AMBEL preemergence herbicidal rating (AMBEL (Ragweed, Common) [4]; rate 0.0156 kg/ha): 0.0
- AMBEL preemergence herbicidal rating (AMBEL (Ragweed, Common) [4]; rate 0.0313 kg/ha): 5.0
- AMBEL preemergence herbicidal rating (AMBEL (Ragweed, Common) [4]; rate 0.0625 kg/ha): 7.0
- AMBEL preemergence herbicidal rating (AMBEL (Ragweed, Common) [4]; rate 0.1250 kg/ha): 9.0
- AMBEL preemergence herbicidal rating (AMBEL (Ragweed, Common) [4]; rate 0.2500 kg/ha): 9.0
- ABUTH herbicidal rating (ABUTH (Velvetleaf); rate 0.0158 kg/ha): 9.0
- ABUTH herbicidal rating (ABUTH (Velvetleaf); rate 0.0315 kg/ha): 9.0
- ABUTH herbicidal rating (ABUTH (Velvetleaf); rate 0.0630 kg/ha): 9.0
- CHEAL preemergence herbicidal rating ([5]; rate 0.0156 kg/ha): 9.0
- CHEAL preemergence herbicidal rating ([5]; rate 0.0313 kg/ha): 9.0
- CHEAL preemergence herbicidal rating ([5]; rate 0.0625 kg/ha): 9.0
- CHEAL preemergence herbicidal rating ([5]; rate 0.1250 kg/ha): 9.0
- CHEAL preemergence herbicidal rating ([5]; rate 0.2500 kg/ha): 9.0
- ECHCG herbicidal rating (ECHCG (Barnyardgrass); rate 0.0158 kg/ha): 2.0
- ECHCG herbicidal rating (ECHCG (Barnyardgrass); rate 0.0315 kg/ha): 2.0
- ECHCG herbicidal rating (ECHCG (Barnyardgrass); rate 0.0630 kg/ha): 1.0
- Herbicidal rating CYPIR (CYPIR (Rice Flatsedge); rate 0.1160 kg/ha): 0.0
- Herbicidal rating CYPIR (CYPIR (Rice Flatsedge); rate 0.2310 kg/ha): 0.0
- Herbicidal rating CYPIR (CYPIR (Rice Flatsedge); rate 0.4630 kg/ha): 5.0
- GLXMAW herbicidal rating ([6]; rate 0.0158 kg/ha): 5.5
- GLXMAW herbicidal rating ([6]; rate 0.0315 kg/ha): 6.5
- GLXMAW herbicidal rating ([6]; rate 0.0630 kg/ha): 5.5
- Herbicidal rating CYPSE (CYPSE (Flatsedge) [7]; rate 0.1160 kg/ha): 4.0
- Herbicidal rating CYPSE (CYPSE (Flatsedge) [7]; rate 0.2310 kg/ha): 4.0
- Herbicidal rating CYPSE (CYPSE (Flatsedge) [7]; rate 0.4630 kg/ha): 4.0
